According to US20230279025A1, “KRAS G12D INHIBITORS” (Mirati Therapeutics, Inc., priority 2020, published 2023):
Counter-ions that a name gives are not always drawn.

Molecular target: KRas G12D (Homo sapiens (Human), UniProt P01116, G12D)
Experiment: KRas G12D Binding Assay (TR-FRET displacement of Cy5 labelled tracer)
Conditions: GDP-loaded KRAS G12D (amino acids 1:169), 60 minute incubation at 22° C.
Protocol: After a 60 minute incubation at 22° C., the reaction was measured using a PerkinElmer EnVision multimode plate reader via TR-FRET dual wavelength detection, and the percent of control (POC) calculated using a ratiometric emission factor. […] The POC values were fit to a 4-parameter logistic curve and the IC50 value was determined as the concentration where the curve crosses 50 POC.
ND stands for “not determined.”

Chain of KRas G12D (P01116 other isoform, or with tags, fused parts or gaps G12D): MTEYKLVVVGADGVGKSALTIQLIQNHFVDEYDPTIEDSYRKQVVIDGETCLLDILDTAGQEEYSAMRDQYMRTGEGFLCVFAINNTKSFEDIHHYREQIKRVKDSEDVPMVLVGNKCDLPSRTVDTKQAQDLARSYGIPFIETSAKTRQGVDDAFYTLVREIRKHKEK

Compound | IC50
CCc1c(Cl)cccc1-c1ncc2c(N3C[C@H]4CC[C@@H](C3)N4)nc(OCC34CCCN3CCC4)nc2c1F [Example 312, 4-((1R,5S)-3,8-diazabicyclo[3.2.1]octan-3-yl)-7-(3-chloro-2-ethylphenyl)-8-fluoro-2-((hexahydro-1H-pyrrolizin-7a-yl)methoxy)pyrido[4,3-d]pyrimidine] | 9 nM
Fc1c(-c2ccccc2OC(F)(F)F)ncc2c(N3C[C@H]4CC[C@@H](C3)N4)nc(OCC34CCCN3CCC4)nc12 [Example 229, 4-((1R,5S)-3,8-diazabicyclo[3.2.1]octan-3-yl)-8-fluoro-2-((tetrahydro-1H-pyrrolizin-7a(5H)-yl)methoxy)-7-(2-(trifluoromethoxy)phenyl)pyrido[4,3-d]pyrimidine bis-hydrochloride] | 121 nM
C#Cc1c(F)ccc2cc(O)cc(-c3ncc4c(N5C[C@H]6CC[C@@H](C5)N6)nc(OCC56CCCN5CCC6)nc4c3F)c12 [Example 232, 4-(4-((1R,5S)-3,8-diazabicyclo[3.2.1]octan-3-yl)-8-fluoro-2-((tetrahydro-1H-pyrrolizin-7a(5H)-yl)methoxy)pyrido[4,3-d]pyrimidin-7-yl)-5-ethynyl-6-fluoronaphthalen-2-ol] | 0.6 nM
Fc1c(-c2cccc3cccc(OC(F)F)c23)ncc2c(N3C[C@H]4CC[C@@H](C3)N4)nc(OCC34CCCN3CCC4)nc12 [Example 346, 4-((1R,5S)-3,8-diazabicyclo[3.2.1]octan-3-yl)-7-(8-(difluoromethoxy)naphthalen-1-yl)-8-fluoro-2-((tetrahydro-1H-pyrrolizin-7a(5H)-yl)methoxy)pyrido[4,3-d]pyrimidine] | 10.5 nM
Oc1cc(-c2ncc3c(N4C[C@H]5CC[C@@H](C4)N5)nc(OCC45CCCN4C(CF)CC5)nc3c2F)c2ccccc2c1 (mixture of isomers) [Example 384, 4-(4-((1R,5S)-3,8-diazabicyclo[3.2.1]octan-3-yl)-8-fluoro-2-((3-(fluoromethyl)tetrahydro-1H-pyrrolizin-7a(5H)-yl)methoxy)pyrido[4,3-d]pyrimidin-7-yl)naphthalen-2-ol] | 2.4 nM
CCc1c(F)ccc2cc(O)cc(-c3ncc4c(N5C[C@H]6CC[C@@H](C5)N6)nc(OC[C@]56CCCN5[C@@H](COC(=O)N(C)C)CC6)nc4c3F)c12 [Example 441, ((3R,7aR)-7a-(((4-((1R,5S)-3,8-diazabicyclo[3.2.1]octan-3-yl)-7-(8-ethyl-7-fluoro-3-hydroxynaphthalen-1-yl)-8-fluoropyrido[4,3-d]pyrimidin-2-yl)oxy)methyl)hexahydro-1H-pyrrolizin-3-yl)methyl dimethylcarbamate] | 0.5 nM
Fc1c(-c2cccc(C(F)(F)F)c2C(F)(F)F)ncc2c(N3C[C@H]4CC[C@@H](C3)N4)nc(OCC34CCCN3CCC4)nc12 [Example 197, 4-((1R,5S)-3,8-diazabicyclo[3.2.1]octan-3-yl)-7-(2,3-bis(trifluoromethyl)phenyl)-8-fluoro-2-((tetrahydro-1H-pyrrolizin-7a(5H)-yl)methoxy)pyrido[4,3-d]pyrimidine] | 99.9 nM
Oc1cc(Cl)c(C2CC2)c(-c2ncc3c(N4C[C@H]5CC[C@@H](C4)N5)nc(OC[C@@]45CCCN4C[C@H](F)C5)nc3c2F)c1 [Example 283, 3-(4-((1R,5S)-3,8-diazabicyclo[3.2.1]octan-3-yl)-8-fluoro-2-(((2R,7aS)-2-fluorohexahydro-1H-pyrrolizin-7a-yl)methoxy)pyrido[4,3-d]pyrimidin-7-yl)-5-chloro-4-cyclopropylphenol] | 0.7 nM
Oc1c(F)cc(F)c(-c2ncc3c(N4C[C@H]5CC[C@@H](C4)N5)nc(OCC45CCCN4CCC5)nc3c2F)c1F [Example 350, 3-(4-((1R,5S)-3,8-diazabicyclo[3.2.1]octan-3-yl)-8-fluoro-2-((tetrahydro-1H-pyrrolizin-7a(5H)-yl)methoxy)pyrido[4,3-d]pyrimidin-7-yl)-2,4,6-trifluorophenol] | 3820 nM
Fc1c(-c2cccc3cccc(Cl)c23)ncc2c(N3C[C@H]4CC[C@@H](C3)N4)nc(OC[C@]34CCCN3[C@@H](Cn3cccn3)CC4)nc12 [Example 418, 2-(((3R,7aR)-3-((1H-pyrazol-1-yl)methyl)hexahydro-1H-pyrrolizin-7a-yl)methoxy)-4-((1R,5S)-3,8-diazabicyclo[3.2.1]octan-3-yl)-7-(8-chloronaphthalen-1-yl)-8-fluoropyrido[4,3-d]pyrimidine] | 7.5 nM
CN(C)c1ccccc1-c1ncc2c(N3C[C@H]4CC[C@@H](C3)N4)nc(OCC34CCCN3CCC4)nc2c1F [Example 296, 2-(4-((1R,5S)-3,8-diazabicyclo[3.2.1]octan-3-yl)-8-fluoro-2-((hexahydro-1H-pyrrolizin-7a-yl)methoxy)pyrido[4,3-d]pyrimidin-7-yl)-N,N-dimethylaniline] | 112 nM
Cn1nccc1CCOc1nc(N2C[C@H]3CC[C@@H](C2)N3)c2cnc(-c3cccc4cccc(Cl)c34)c(F)c2n1 [Example 144, 4-((1R,5S)-3,8-diazabicyclo[3.2.1]octan-3-yl)-7-(8-chloronaphthalen-1-yl)-8-fluoro-2-(2-(1-methyl-1H-pyrazol-5-yl)ethoxy)pyrido[4,3-d]pyrimidine] | 1700 nM
Oc1cc(-c2ncc3c(N4C[C@H]5CC[C@@H](C4)N5)nc(OC[C@@]45CCCN4C[C@H](F)C5)nc3c2F)c2c(Cl)cccc2c1 [Example 251, 4-(4-((1R,5S)-3,8-diazabicyclo[3.2.1]octan-3-yl)-8-fluoro-2-(((2R,7aS)-2-fluorohexahydro-1H-pyrrolizin-7a-yl)methoxy)pyrido[4,3-d]pyrimidin-7-yl)-5-chloronaphthalen-2-ol] | 0.2 nM
O[C@@H]1C[C@@H]2CN(c3nc(OCCC(F)(F)F)nc4c(F)c(-c5cccc6cccc(Cl)c56)ncc34)C[C@H]1N2 [Example 155, (1R,5R,6R)-3-(7-(8-chloronaphthalen-1-yl)-8-fluoro-2-(3,3,3-trifluoropropoxy)pyrido[4,3-d]pyrimidin-4-yl)-3,8-diazabicyclo[3.2.1]octan-6-ol] | 3420 nM
Fc1c(-c2c(OC(F)(F)F)ccc3[nH]ncc23)ncc2c(N3C[C@H]4CC[C@@H](C3)N4)nc(OCC34CCCN3CCC4)nc12 [Example 258, 4-((1R,5S)-3,8-diazabicyclo[3.2.1]octan-3-yl)-8-fluoro-2-((hexahydro-1H-pyrrolizin-7a-yl)methoxy)-7-(5-(trifluoromethoxy)-1H-indazol-4-yl)pyrido[4,3-d]pyrimidine] | 6.5 nM
CN(C)C(=O)OC[C@H]1CC[C@@]2(COc3nc(N4CC5CCC(C4)N5)c4cnc(-c5cccc6cccc(Cl)c56)c(F)c4n3)CCCN12 [Example 405, (7a-(((4-(3,8-diazabicyclo[3.2.1]octan-3-yl)-7-(8-chloronaphthalen-1l-yl)-8-fluoropyrido[4,3-d]pyrimidin-2-yl)oxy)methyl)hexahydro-1H-pyrrolizin-3-yl)methyl dimethylcarbamate] | 2.2 nM
Oc1cc(-c2ncc3c(N4CC5CCC(C4)N5)nc(OCCN4C[C@@H]5C[C@H]4CO5)nc3c2F)c2ccccc2c1 [Example 461, 4-(2-(2-((1S,4S)-2-oxa-5-azabicyclo[2.2.1]heptan-5-yl)ethoxy)-4-((1R,5S)-3,8-diazabicyclo[3.2.1]octan-3-yl)-8-fluoropyrido[4,3-d]pyrimidin-7-yl)naphthalen-2-ol] | 0.062 nM
Fc1c(-c2cccc3cccc(Br)c23)ncc2c(N3C[C@H]4CC[C@@H](C3)N4)nc(OCC34CCCN3CCC4)nc12 [Example 235, 4-((1R,5S)-3,8-diazabicyclo[3.2.1]octan-3-yl)-7-(8-bromonaphthalen-1-yl)-8-fluoro-2-((tetrahydro-1H-pyrrolizin-7a(5H)-yl)methoxy)pyrido[4,3-d]pyrimidine] | 1.2 nM
Oc1cc(-c2ncc3c(N4C[C@H]5CC[C@@H](C4)N5)nc(OCC45CCCN4CCC5)nc3c2F)c2c(F)cccc2c1 [Example 367, 4-(4-((1R,5S)-3,8-diazabicyclo[3.2.1]octan-3-yl)-8-fluoro-2-((tetrahydro-1H-pyrrolizin-7a(5H)-yl)methoxy)pyrido[4,3-d]pyrimidin-7-yl)-5-fluoronaphthalen-2-ol tris(2,2,2-trifluoroacetate)] | 0.7 nM
Oc1cccc2cccc(-c3ncc4c(N5C[C@H]6CC[C@@H](C5)N6)nc(OCC56CCCN5CCC6)nc4c3F)c12 [Example 237, 8-(4-((1R,5S)-3,8-diazabicyclo[3.2.1]octan-3-yl)-8-fluoro-2-((tetrahydro-1H-pyrrolizin-7a(5H)-yl)methoxy)pyrido[4,3-d]pyrimidin-7-yl)naphthalen-1-ol] | 500 nM
Fc1c(-c2cccc3cccc(Cl)c23)ncc2c(N3C[C@H]4CC[C@@H](C3)N4)nc(OC[C@@H]3CCCO3)nc12 [Example 136, 4-((1R,5S)-3,8-diazabicyclo[3.2.1]octan-3-yl)-7-(8-chloronaphthalen-1-yl)-8-fluoro-2-(((S)-tetrahydrofuran-2-yl)methoxy)pyrido[4,3-d]pyrimidine] | 5150 nM
CCCc1ccccc1-c1ncc2c(N3C[C@H]4CC[C@@H](C3)N4)nc(OCC34CCCN3CCC4)nc2c1F [Example 447, 4-((1R,5S)-3,8-diazabicyclo[3.2.1]octan-3-yl)-8-fluoro-7-(2-propylphenyl)-2-((tetrahydro-1H-pyrrolizin-7a-(5H)-yl)methoxy)pyrido[4,3-d]pyrimidine] | 297 nM
CC1(c2ccccc2-c2ncc3c(N4C[C@H]5CC[C@@H](C4)N5)nc(OCC45CCCN4CCC5)nc3c2F)CC1 [Example 305, 4-((1R,5S)-3,8-diazabicyclo[3.2.1]octan-3-yl)-8-fluoro-2-((hexahydro-1H-pyrrolizin-7a-yl)methoxy)-7-(2-(1-methylcyclopropyl)phenyl)pyrido[4,3-d]pyrimidine] | 367 nM
O[C@H]1CN2CCC[C@]2(COc2nc(N3CC4CCC(C3)N4)c3cnc(-c4cccc5cccc(Cl)c45)c(F)c3n2)C1 (stereo in doubt) [Example 224, 7a-(((4-((1R,5S)-3,8-diazabicyclo[3.2.1]octan-3-yl)-7-(8-chloronaphthalen-1-yl)-8-fluoropyrido[4,3-d]pyrimidin-2-yl)oxy)methyl)hexahydro-1H-pyrrolizin-2-ol bis-hydrochloride] | 27 nM
